Reference: ChEMBL document CHEMBL1130061, “Discovery and biological activity of orally active peptidyl trifluoromethyl ketone inhibitors of human neutrophil elastase” (J Med Chem, 1997)
Numbered stars: 1 amine (or outer) side, 2 acyl side, 3 side chain; on linkers, the order of the positions; unused ones are H or OH. Square brackets hold non-standard residues; d marks the D form. Peptide text beside a SMILES is read from it. * marks the point of attachment. ξ: configuration not given here. 4Abz = Nc1ccc(C(=O)O)cc1; CO = O=C([*:1])[*:2]; ξV = CC(C)C(N)C(=O)O; ξP = O=C(O)C1CCCN1; CF3 = FC(F)(F)*

How the values were obtained:
[1] = target: T1, Neutrophil elastase (Homo sapiens, UniProt P08246); assay: Inhibitory activity against Human Neutrophil Elastase by HNE-catalyzed hydrolysis of MeO-Suc-Ala-Ala-Pro-Val-pNa
T1 sequence (P08246 whole entry): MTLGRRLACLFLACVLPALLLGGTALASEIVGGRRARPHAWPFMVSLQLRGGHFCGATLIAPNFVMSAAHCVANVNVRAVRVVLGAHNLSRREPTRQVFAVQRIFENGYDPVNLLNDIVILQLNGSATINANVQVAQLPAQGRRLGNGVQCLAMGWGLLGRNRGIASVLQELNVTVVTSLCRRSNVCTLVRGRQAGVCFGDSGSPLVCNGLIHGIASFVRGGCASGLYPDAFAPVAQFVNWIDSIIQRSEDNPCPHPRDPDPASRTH

[2] = organism: Mesocricetus auratus; assay: Reduction in wet lung weight relative to the body weight in hamsters
[3] = tested on: Mesocricetus auratus; assay: Oral administration at a dose of 37.5 mg/kg 30 min prior to HNE and reduction in the number of white blood cells was reported
[4] = tested on: Mesocricetus auratus; assay: Oral administration at a dose of 37.5 mg/kg 30 min prior to HNE (100 mg/hamster) and reduction in the number of white blood cells was reported

Row | Structure (SMILES) | Ki [1] [nM] | Lw/Bw [2] | Reduction [3] [%] | Reduction [4] [%]
1 | CC(C)[C@H](NC(=O)c1ccc(O)cc1)C(=O)N1CCC[C@H]1C(=O)N[C@H](C(=O)C(F)(F)F)C(C)C | 3.9 | 35 | 28 | –
2 | Cc1ccc(C(=O)N[C@H](C(=O)N2CCC[C@H]2C(=O)N[C@H](C(=O)C(F)(F)F)C(C)C)C(C)C)cc1C | 1 | 75 | 55 | –
3 | CC(C)[C@H](NC(=O)C(=O)O)C(=O)N1CCC[C@H]1C(=O)N[C@H](C(=O)C(F)(F)F)C(C)C | 810 | 2 | 38 | –
4 | CC(C)[C@H](NC(=O)c1ccc(O)c(O)c1)C(=O)N1CCC[C@H]1C(=O)N[C@H](C(=O)C(F)(F)F)C(C)C | 16 | -73 | – | -41
5 | CC(C)[C@H](NS(=O)(=O)C(F)(F)F)C(=O)N1CCC[C@H]1C(=O)N[C@H](C(=O)C(F)(F)F)C(C)C | 150 | 20 | 17 | –
6 | CC(C)[C@H](NC(=O)c1ccc(F)cc1)C(=O)N1CCC[C@H]1C(=O)N[C@H](C(=O)C(F)(F)F)C(C)C | 2.9 | 44 | 22 | –
7 | CC(C)[C@H](NC(=O)Nc1ccc(F)cc1)C(=O)N1CCC[C@H]1C(=O)N[C@H](C(=O)C(F)(F)F)C(C)C | 11 | -3 | 8 | –
8 | CC(C)[C@H](NC(=O)c1ccccn1)C(=O)N1CCC[C@H]1C(=O)N[C@H](C(=O)C(F)(F)F)C(C)C | 20 | 8 | 44 | –
9 | CC(C)[C@H](NS(=O)(=O)c1ccccc1)C(=O)N1CCC[C@H]1C(=O)N[C@H](C(=O)C(F)(F)F)C(C)C | 14 | 29 | – | -48
10 | CC(C)C(NC(=O)C1CCCN1C(=O)[C@@H](NC(=O)c1ccc(C(=O)NCCN(C)C)cc1)C(C)C)C(=O)C(F)(F)F (stereo not given in full) | 5.4 | 20 | 71 | –
11 | CC(C)C(NC(=O)C1CCCN1C(=O)[C@@H](NS(=O)(=O)C12CC3CC(CC(C3)C1)C2)C(C)C)C(=O)C(F)(F)F (stereo not given in full) | 1.2 | -36 | 61 | –
12 | CC(C)C(NC(=O)C1CCCN1C(=O)[C@@H](NC(=O)c1ccc(C(=O)NS(C)(=O)=O)cc1)C(C)C)C(=O)C(F)(F)F (stereo not given in full) | 4.2 | -9 | 43 | –
13 | CC(=O)Nc1ccc(S(=O)(=O)N[C@H](C(=O)N2CCCC2C(=O)NC(C(=O)C(F)(F)F)C(C)C)C(C)C)cc1 (stereo not given in full) | 55 | 2 | 32 | –
14 | CC(C)C(NC(=O)C1CCCN1C(=O)[C@@H](NS(=O)(=O)c1c(F)c(F)c(F)c(F)c1F)C(C)C)C(=O)C(F)(F)F (stereo not given in full) | 1.6 | -24 | 27 | –
15 | COC(=O)c1cc(C(=O)N[C@H](C(=O)N2CCCC2C(=O)NC(C(=O)C(F)(F)F)C(C)C)C(C)C)cc(C(=O)OC)c1 (stereo not given in full) | 11 | 6 | 6 | –
16 | CC(C)C(NC(=O)c1ccc(C(=O)NS(=O)(=O)c2ccc(Br)cc2)cc1)C(=O)N1CCC[C@H]1C(=O)N[C@H](C(=O)C(F)(F)F)C(C)C (stereo not given in full) | – | -0.5 | 30 | –
17 | CC(C)C(NC(=O)C1CCCN1C(=O)[C@@H](NC(=O)/C=C/c1ccc(C(=O)O)cc1)C(C)C)C(=O)C(F)(F)F (stereo not given in full) | 1.8 | 13 | 68 | –
18 | CC(C)C(NC(=O)C1CCCN1C(=O)[C@@H](NS(=O)(=O)c1ccc(Cl)cc1)C(C)C)C(=O)C(F)(F)F (stereo not given in full) | 3.3 | -41 | 7 | –
19 | CSc1ccc(C(=O)N[C@H](C(=O)N2CCCC2C(=O)NC(C(=O)C(F)(F)F)C(C)C)C(C)C)cc1 (stereo not given in full) | 2.3 | 20 | 36 | –

Row | Structure (SMILES) | Ki [1] [nM] | Lw/Bw [2] | Reduction [3] [%] | Reduction [4] [%]
20 | CC(C)c1cc(C(C)C)c(S(=O)(=O)N[C@H](C(=O)N2CCCC2C(=O)NC(C(=O)C(F)(F)F)C(C)C)C(C)C)c(C(C)C)c1 (stereo not given in full) | 3.2 | -17 | – | -186
21 | CC(C)C(NC(=O)C1CCCN1C(=O)[C@@H](NS(=O)(=O)c1ccc2ccccc2c1)C(C)C)C(=O)C(F)(F)F (stereo not given in full) | 2.7 | – | 20 | –
22 | CCOC(=O)c1ccc(/C=C/C(=O)N[C@H](C(=O)N2CCCC2C(=O)NC(C(=O)C(F)(F)F)C(C)C)C(C)C)cc1 (stereo not given in full) | 0.43 | -122 | – | -48
23 | CC(C)C(NC(=O)C1CCCN1C(=O)[C@@H](NC(=O)c1cc2ccccc2cc1C(=O)O)C(C)C)C(=O)C(F)(F)F (stereo not given in full) | 1.7 | 23 | 53 | –
24 | CC(=O)Oc1cc(OC(C)=O)cc(C(=O)N[C@H](C(=O)N2CCCC2C(=O)NC(C(=O)C(F)(F)F)C(C)C)C(C)C)c1 (stereo not given in full) | 60 | – | – | -12
25 | CC(C)C(NC(=O)C1CCCN1C(=O)[C@@H](NC(=O)c1ccc(Oc2ccccc2)cc1)C(C)C)C(=O)C(F)(F)F (stereo not given in full) | 0.41 | 31 | 78 | –
26 | COc1ccc(C(=O)N[C@H](C(=O)N2CCCC2C(=O)NC(C(=O)C(F)(F)F)C(C)C)C(C)C)cc1OC (stereo not given in full) | 1.1 | 66 | 46 | –
27 | CC(C)C(NC(=O)C1CCCN1C(=O)[C@@H](NC(=O)c1ccc(N(C)C)cc1)C(C)C)C(=O)C(F)(F)F (stereo not given in full) | 2.5 | 36 | 0 | –
28 | CC(C)C(NC(=O)C1CCCN1C(=O)[C@@H](NC(=O)c1ccc2ccccc2c1)C(C)C)C(=O)C(F)(F)F (stereo not given in full) | 0.87 | 43 | 73 | –
29 | COc1cccc(OC)c1C(=O)N[C@H](C(=O)N1CCCC1C(=O)NC(C(=O)C(F)(F)F)C(C)C)C(C)C (stereo not given in full) | 15 | 20 | 177 | –
30 | COC(=O)c1ccc(C(=O)N[C@H](C(=O)N2CCCC2C(=O)NC(C(=O)C(F)(F)F)C(C)C)C(C)C)cc1 (stereo not given in full) | 1.8 | 49 | 56 | –
31 | CC(C)C(NC(=O)C1CCCN1C(=O)[C@@H](NC(=O)c1ccc([N+](=O)[O-])cc1)C(C)C)C(=O)C(F)(F)F (stereo not given in full) | 1.2 | 54 | 4 | –
32 | CC(C)C(NC(=O)C1CCCN1C(=O)[C@@H](NC(=O)c1ccc(S(C)(=O)=O)cc1)C(C)C)C(=O)C(F)(F)F (stereo not given in full) | 2 | -16 | 58 | –
33 | CC(C)[C@H](NC(=O)C(F)(F)F)C(=O)N1CCC[C@H]1C(=O)N[C@H](C(=O)C(F)(F)F)C(C)C (HELM PEPTIDE1{[O=C(C(F)(F)F)[*:2]].V.P.V.[FC(F)(F)[*:1]]}$$$$V2.0) | 15 | 67 | 91 | –
34 | CC(C)[C@H](NC(=O)OCc1ccccc1)C(=O)N1CCC[C@H]1C(=O)N[C@H](C(=O)C(F)(F)F)C(C)C (HELM PEPTIDE1{[O=C(OCc1ccccc1)[*:2]].V.P.V.[FC(F)(F)[*:1]]}$$$$V2.0) | – | 53 | 38 | –
35 | CC(C)[C@H](NC(=O)c1cccnc1)C(=O)N1CCC[C@H]1C(=O)N[C@H](C(=O)C(F)(F)F)C(C)C (HELM PEPTIDE1{[O=C(c1cccnc1)[*:2]].V.P.V.[FC(F)(F)[*:1]]}$$$$V2.0) | 7.8 | -6 | 23 | –
36 | CCCN(CC(=O)N[C@H](C(=O)N1CCC[C@H]1C(=O)N[C@H](C(=O)C(F)(F)F)C(C)C)C(C)C)C(C)=O (HELM PEPTIDE1{[ac].[CCCN(CC(=O)[*:2])[*:1]].V.P.V.[FC(F)(F)[*:1]]}$$$$V2.0) | 2 | 24 | 78 | –
37 | CC(=O)N(CC(=O)N[C@H](C(=O)N1CCC[C@H]1C(=O)N[C@H](C(=O)C(F)(F)F)C(C)C)C(C)C)Cc1ccccc1 (HELM PEPTIDE1{[ac].[O=C(CN(Cc1ccccc1)[*:1])[*:2]].V.P.V.[FC(F)(F)[*:1]]}$$$$V2.0) | 0.96 | 20 | 36 | –
38 | CC(C)C(NC(=O)C1CCCN1C(=O)[C@@H](NC(=O)Nc1ccc(C(=O)O)cc1)C(C)C)C(=O)C(F)(F)F (stereo not given in full) ({4Abz-CO}-Val-[ξP]-[ξV]-CF3) | 10 | -1 | 48 | –
